In the experiment the target is human RORgammaT-Ligand Binding Domain (LBD) (Homo sapiens (Human), UniProt P51449). Put plainly: RORγ-Ligand Binding Domain TR-FRET assay (co-activator peptide SRC1_2 recruitment). The class given is biochemical. A general note: In TR-FRET formats the signal depends on donor and acceptor labels being close together.
[1] abbreviates: HIS-tagged RORγ-LBD 3 nM, biotinylated SRC1 LXXLL peptide 100 nM, incubated overnight at 4° C., 665 nm/615 nm signal quotient.

The source of these data is patent publication US9556168B2, “N-alkylated indole and indazole compounds as RORgammaT inhibitors and uses thereof” (Merck Sharp & Dohme Corp., priority 2012, dated 2017).

Like-named read-outs stand apart in the source and are kept apart here.

One may read the IC50 as the midpoint of a concentration-inhibition curve. Read a low IC50 as higher potency.

Sequence of human RORgammaT-Ligand Binding Domain (LBD) (P51449 269-508): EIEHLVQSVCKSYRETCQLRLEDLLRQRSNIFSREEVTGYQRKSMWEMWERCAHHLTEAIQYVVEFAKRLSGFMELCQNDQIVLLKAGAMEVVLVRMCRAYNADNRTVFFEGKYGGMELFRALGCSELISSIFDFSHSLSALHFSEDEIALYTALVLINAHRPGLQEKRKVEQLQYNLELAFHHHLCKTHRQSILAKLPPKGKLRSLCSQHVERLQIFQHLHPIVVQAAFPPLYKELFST

`N#Cc1ccc(Cl)cc1Cn1nc(-c2ccc(C(=O)O)cc2F)c2ncccc21` [Example 1J, 4-[1-(5-chloro-2-cyanobenzyl)-1H-pyrazolo[4,3-b]pyridin-3-yl]-3-fluorobenzoic acid] yielded an IC50 of more than 10 µM.

In turn, `CC(c1ccccc1C(F)(F)F)n1nc(-c2ccc(C(=O)O)cc2F)c2ncccc21` (stereo not shown) [Example 1K, 3-fluoro-4-(1-{1-[2-(trifluoromethyl)phenyl]ethyl}-1H-pyrazolo[4,3-b]pyridin-3-yl)benzoic acid] returned an IC50 under setting [1] of more than 10 µM.

In turn, `O=C(O)c1ccc(-c2nn(Cc3c(F)ccc(F)c3F)c3cccnc23)c(F)c1` [Example 1N, 3-fluoro-4-[1-(2,3,6-trifluorobenzyl)-1H-pyrazolo[4,3-b]pyridin-3-yl]benzoic acid] came in with an IC50 under setting [1] of more than 10 µM. The same measure, in the same setting: as for `O=C(O)c1ccc(-c2nn(Cc3c(F)cccc3F)c3cccnc23)c(F)c1` [Example 1P, 4-[1-(2,6-difluorobenzyl)-1H-pyrazolo[4,3-b]pyridin-3-yl]-3-fluorobenzoic acid], the figure is more than 10 µM.
